# In patent US9101638B2, “Boronic acid derivatives and therapeutic uses thereof” (Rempex Pharmaceuticals, Inc., priority 2013, dated 2015):
# Read-outs that look alike come from different tables or passages of the source.
# Experiments:
# [1] = system: PAM1032/KPC-2; assay: Biapenem potentiation in PAM1032/KPC-2 (MexAB-OprM overexpressed); format: cell-based, Pseudomonas aeruginosa
# Experimental: (§1) Efflux of BLIs from Pseudomonas aeruginosa by the MexAB-OprM efflux pump was also evaluated. […] Due to expression of KPC-2 both strains became resistant to biapenem. […] Potency of BLIs to potentiate biapenem in these strains was determined. […] The ratio of MPC64 values for each BLI in PAM1032/KPC-2 (efflux proficient) and PAM1154/KPC-2 (efflux deficient) was determined to generate the Efflux Index (EI).
# [2] = system: ECL1002; assay: Potentiation of aztreonam, strain ECL1002; format: cell-based; details: minimum BLI concentration inhibiting growth with 4 μg/mL aztreonam
# [3] = biological target: KPC-2 (Klebsiella pneumoniae, UniProt Q9F663); assay: Inhibition of nitrocefin cleavage by purified KPC-2; format: biochemical; details: nitrocefin reporter substrate, purified enzyme; read-out: Ki (KPC-2, NCF)
# Experimental: (§2) Purified enzymes were mixed with various concentrations of inhibitors in reaction buffer and incubated for 10 min at room temperature. Nitrocefin was added and substrate cleavage profiles were recorded at 490 nm every 10 sec for 10 min.
# [4] = system: ec302 (TEM-10); assay: Potentiation of aztreonam, strain ec302; format: cell-based
# [5] = system: KP1004 (K-2); assay: Potentiation of aztreonam, strain KP1004; format: cell-based; details: minimum BLI concentration inhibiting growth with 4 μg/mL aztreonam
# [6] = system: PAM1154/KPC-2; assay: Biapenem potentiation in PAM1154/KPC-2 (MexAB-OprM lacking); format: cell-based, Pseudomonas aeruginosa
# Experimental: as §1
# [7] = system: ec308 (SHV-5); assay: Potentiation of tigemonam, strain ec308; format: cell-based; details: minimum BLI concentration inhibiting growth with 4 μg/mL tigemonam
# [8] = system: KP1009 (CTX-M-15); assay: Potentiation of tigemonam, strain KP1009; details: minimum BLI concentration inhibiting growth with 4 μg/mL tigemonam
# [9] = system: EC1010 (CMY-6); format: cell-based
# [10] = system: KP1005 (CTX-M-14); assay: Potentiation of aztreonam, strain KP1005; format: cell-based
# [11] = biological target: OXA-48 (Klebsiella pneumoniae, UniProt Q6XEC0); assay: Inhibition of nitrocefin cleavage by purified OXA-48; format: biochemical; details: nitrocefin reporter substrate, purified enzyme; read-out: Ki (OXA-48, NCF)
# Experimental: as §2
# [12] = system: ec308 (SHV-5); assay: Potentiation of aztreonam, strain ec308; format: cell-based; details: minimum BLI concentration inhibiting growth with 4 μg/mL aztreonam
# [13] = biological target: CTX-M-14 (Escherichia coli, UniProt Q9L5C7); assay: Inhibition of nitrocefin cleavage by purified CTX-M-14; format: biochemical; details: nitrocefin reporter substrate, purified enzyme; read-out: Ki (CTX-M-14, NCF)
# Experimental: as §2
# [14] = biological target: SHV-12 (Klebsiella pneumoniae, UniProt P0AD64, E235K/G234S/L31Q); assay: Inhibition of nitrocefin cleavage by purified SHV-12; format: biochemical; details: nitrocefin reporter substrate, purified enzyme; read-out: Ki (SHV-12, NCF)
# Experimental: as §2
# [15] = system: EC1010 (CMY-6); assay: Potentiation of aztreonam, strain EC1010; format: cell-based
# [16] = biological target: T1, CathepsinG (Homo sapiens, UniProt P08311); assay: Serine protease inhibition: cathepsin G; format: biochemical, mammalian; details: Table 8B
# T1 construct: purchased EMD Millipore 219373
# T1 sequence (P08311 21-244): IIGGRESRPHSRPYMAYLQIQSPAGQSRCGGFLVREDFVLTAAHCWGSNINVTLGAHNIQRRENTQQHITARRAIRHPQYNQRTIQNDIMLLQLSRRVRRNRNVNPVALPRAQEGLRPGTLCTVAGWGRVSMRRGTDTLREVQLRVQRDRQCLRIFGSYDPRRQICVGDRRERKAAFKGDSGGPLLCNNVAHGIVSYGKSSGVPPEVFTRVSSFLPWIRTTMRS
# Experimental: (§3) The effect of selected BLIs on the enzymatic activity of some common mammalian serine proteases was evaluated.
# (§4) 50 μl of the diluted enzyme was mixed with 50 μl of inhibitor at various concentrations and 50 μl of corresponding buffer (Table 7). Reaction mixtures were incubated for 10 min at 37° C. Subsequently, 50 μl of corresponding substrate (Table 7) was added and absorbance or fluorescence was monitored for 30 min on SpectraMax M2 plate reader (Molecular Devices). 4-(2-Aminoethyl)benzenesulfonyl fluoride hydrochloride (AEBSF) and leupeptin were used as positive controls. Rates of reaction were calculated and presented relative to “no treatment” control.
# [17] = biological target: T2, CathepsinA (Homo sapiens, UniProt P10619); assay: Serine protease inhibition: cathepsin A; format: biochemical, mammalian; details: Table 8B; read-out: IC50 CathepsinA
# T2 construct: purchased R&D Systems 1049-SE
# T2 sequence (P10619 29-480): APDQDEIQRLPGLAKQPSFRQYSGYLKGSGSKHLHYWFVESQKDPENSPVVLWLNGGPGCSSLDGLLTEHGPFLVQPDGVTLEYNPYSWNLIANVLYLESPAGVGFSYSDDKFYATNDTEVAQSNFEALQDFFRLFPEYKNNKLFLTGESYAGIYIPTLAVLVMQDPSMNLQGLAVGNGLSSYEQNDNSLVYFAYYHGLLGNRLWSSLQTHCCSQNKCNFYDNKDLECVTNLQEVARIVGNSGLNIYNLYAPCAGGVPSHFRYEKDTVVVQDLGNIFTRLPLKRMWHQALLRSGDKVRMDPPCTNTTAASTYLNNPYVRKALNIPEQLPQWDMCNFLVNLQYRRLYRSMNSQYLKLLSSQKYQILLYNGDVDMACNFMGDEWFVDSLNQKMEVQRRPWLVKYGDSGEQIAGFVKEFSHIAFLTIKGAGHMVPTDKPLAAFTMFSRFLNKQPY
# Experimental: as §3, §4
# [18] = system: KP1009 (CTX-M-15); assay: Potentiation of aztreonam, strain KP1009; format: cell-based
# [19] = system: ec302 (TEM-10); assay: Potentiation of tigemonam, strain ec302; format: cell-based
# [20] = BLI potency to decrease biapenem MIC 64-fold, 32 to 0.5 μg/ml, efflux proficient strain
# Chain of SHV-12 (P0AD64 22-286 L31Q/G234S/E235K): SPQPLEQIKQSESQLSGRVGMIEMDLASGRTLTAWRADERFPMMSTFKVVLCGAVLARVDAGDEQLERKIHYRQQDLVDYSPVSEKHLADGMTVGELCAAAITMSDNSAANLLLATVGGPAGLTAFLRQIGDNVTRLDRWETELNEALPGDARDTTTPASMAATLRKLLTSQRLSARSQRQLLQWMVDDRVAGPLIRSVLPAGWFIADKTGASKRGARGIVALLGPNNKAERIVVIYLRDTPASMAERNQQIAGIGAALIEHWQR
# Chain of KPC-2 (Q9F663 25-293, looked up, species assumed): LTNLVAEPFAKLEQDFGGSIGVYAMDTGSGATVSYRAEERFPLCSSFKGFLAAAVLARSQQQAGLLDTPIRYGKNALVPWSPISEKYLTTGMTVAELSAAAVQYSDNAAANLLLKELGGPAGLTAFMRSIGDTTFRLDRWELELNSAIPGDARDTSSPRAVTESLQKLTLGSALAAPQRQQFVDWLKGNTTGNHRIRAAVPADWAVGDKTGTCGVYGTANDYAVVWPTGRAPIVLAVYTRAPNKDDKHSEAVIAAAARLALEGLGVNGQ
# Chain of CTX-M-14 (Q9L5C7 entry or part of it): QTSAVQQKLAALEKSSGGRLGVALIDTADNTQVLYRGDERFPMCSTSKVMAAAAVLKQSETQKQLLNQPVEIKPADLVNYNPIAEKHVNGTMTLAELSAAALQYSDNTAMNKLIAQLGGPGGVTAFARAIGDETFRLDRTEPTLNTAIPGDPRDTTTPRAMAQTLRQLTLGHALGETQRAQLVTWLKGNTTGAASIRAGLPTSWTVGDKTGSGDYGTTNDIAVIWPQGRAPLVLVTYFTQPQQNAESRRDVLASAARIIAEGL
# Chain of OXA-48 (Q6XEC0 23-265 limits assumed): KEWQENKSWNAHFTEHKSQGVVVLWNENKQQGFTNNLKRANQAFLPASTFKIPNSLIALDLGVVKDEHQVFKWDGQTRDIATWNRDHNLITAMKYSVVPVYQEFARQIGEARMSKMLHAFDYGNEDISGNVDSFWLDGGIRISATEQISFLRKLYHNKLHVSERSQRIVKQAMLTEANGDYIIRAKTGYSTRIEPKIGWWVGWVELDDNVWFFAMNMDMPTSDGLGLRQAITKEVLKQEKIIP
SMILES,"PAM1032/KPC-2 Biapenem MPC64 [1, 20]",AZT MPC4 ECL1002 [2],Ki [3] [nM],AZT MPC4 TEM-10 ec302 [4],AZT MPC4 K-2 KP1004 [5],PAM1154/KPC-2 Biapenem MPC64 [6],TIG MPC4 SHV-5 ec308 [7],TIG MPC4 CTX-M-15 KP1009 [8],TIG MPC4 CMY-6 EC1010 [9],AZT MPC4 CTX-M-14 KP1005 [10],Ki [11] [nM],AZT MPC4 SHV-5 ec308 [12],Ki [13] [nM],Ki [14] [nM],AZT MPC4 CMY-6 EC1010 [15],IC50 [16] [nM],IC50 [17] [nM],AZT MPC4 CTX-M-15 KP1009 [18],TIG MPC4 TEM-10 ec302 [19],PAM1032/KPC-2 Biapenem MPC64 [1]
"CSCC(=O)N[C@H]1Cc2cccc(C(=O)O)c2OB1O [Compound 13, (R)-2-hydroxy-3-(2-(methylthio)acetamido)-3,4-dihydro-2H-benzo[e][1,2]oxaborinine-8-carboxylic acid]",Y (Y = 10 to 40),X (X = MIC of less than 1 μg/mL),> 10,Y (key: X = MIC of less than 1 μg/mL; Y = MIC of 1 μg/mL to 10 μg/mL; Z = MIC of greater than 10 μg/mL),X (X = MIC of less than 1 μg/mL),X (key: X = Less than 10; Y = 10 to 40; Z Greater than 40),X (X = MIC of less than 1 μg/mL),X (X = MIC of less than 1 μg/mL),X (key: X = MIC of less than 1 μg/mL; Y = MIC of 1 μg/mL to 10 μg/mL; Z = MIC of greater than 10 μg/mL),X (key: X = MIC of less than 1 μg/mL; Y = MIC of 1 μg/mL to 10 μg/mL; Z = MIC of greater than 10 μg/mL),< 1,X (X = MIC of less than 1 μg/mL),< 1,–,–,–,–,–,–,–
"O=C(N[C@H]1Cc2cccc(C(=O)O)c2OB1O)c1cncs1 [Compound 15, (R)-2-hydroxy-3-(thiazole-5-carboxamido)-3,4-dihydro-2H-benzo[e][1,2]oxaborinine-8-carboxylic acid]",Z (Z Greater than 40),Y (Y = MIC of 1 μg/mL to 10 μg/mL),> 10,X (key: X = MIC of less than 1 μg/mL; Y = MIC of 1 μg/mL to 10 μg/mL; Z = MIC of greater than 10 μg/mL),Y (Y = MIC of 1 μg/mL to 10 μg/mL),X (key: X = Less than 10; Y = 10 to 40; Z Greater than 40),Y (Y = MIC of 1 μg/mL to 10 μg/mL),Y (Y = MIC of 1 μg/mL to 10 μg/mL),Y (key: X = MIC of less than 1 μg/mL; Y = MIC of 1 μg/mL to 10 μg/mL; Z = MIC of greater than 10 μg/mL),Y (key: X = MIC of less than 1 μg/mL; Y = MIC of 1 μg/mL to 10 μg/mL; Z = MIC of greater than 10 μg/mL),< 1,X (X = MIC of less than 1 μg/mL),< 1,< 1,Y (key: X = MIC of less than 1 μg/mL; Y = MIC of 1 μg/mL to 10 μg/mL; Z = MIC of greater than 10 μg/mL),15000 to 500000,15000 to 500000,Y (key: X = MIC of less than 1 μg/mL; Y = MIC of 1 μg/mL to 10 μg/mL; Z = MIC of greater than 10 μg/mL),Y (key: X = MIC of less than 1 μg/mL; Y = MIC of 1 μg/mL to 10 μg/mL; Z = MIC of greater than 10 μg/mL),–
"NC(=O)N[C@H]1Cc2cccc(C(=O)O)c2OB1O [Compound 6, (R)-2-hydroxy-3-ureido-3,4-dihydro-2H-benzo[e][1,2]oxaborinine-8-carboxylic acid]",–,Z (Z = MIC of greater than 10 μg/mL),–,Z (key: X = MIC of less than 1 μg/mL; Y = MIC of 1 μg/mL to 10 μg/mL; Z = MIC of greater than 10 μg/mL),X (X = MIC of less than 1 μg/mL),X (key: X = Less than 10; Y = 10 to 40; Z Greater than 40),Z (Z = MIC of greater than 10 μg/mL),Y (Y = MIC of 1 μg/mL to 10 μg/mL),X (key: X = MIC of less than 1 μg/mL; Y = MIC of 1 μg/mL to 10 μg/mL; Z = MIC of greater than 10 μg/mL),Y (key: X = MIC of less than 1 μg/mL; Y = MIC of 1 μg/mL to 10 μg/mL; Z = MIC of greater than 10 μg/mL),–,Y (Y = MIC of 1 μg/mL to 10 μg/mL),1 to 10,1 to 10,Y (key: X = MIC of less than 1 μg/mL; Y = MIC of 1 μg/mL to 10 μg/mL; Z = MIC of greater than 10 μg/mL),–,–,Y (key: X = MIC of less than 1 μg/mL; Y = MIC of 1 μg/mL to 10 μg/mL; Z = MIC of greater than 10 μg/mL),Z (key: X = MIC of less than 1 μg/mL; Y = MIC of 1 μg/mL to 10 μg/mL; Z = MIC of greater than 10 μg/mL),X (key: X = Less than 10; Y = 10 to 40; Z Greater than 40)
"O=C(N[C@H]1Cc2cccc(C(=O)O)c2OB1O)c1cncc(F)c1 [Compound 14, (R)-3-(5-fluoronicotinamido)-2-hydroxy-3,4-dihydro-2H-benzo[e][1,2]oxaborinine-8-carboxylic acid]",Z (Z Greater than 40),Y (Y = MIC of 1 μg/mL to 10 μg/mL),> 10,Y (key: X = MIC of less than 1 μg/mL; Y = MIC of 1 μg/mL to 10 μg/mL; Z = MIC of greater than 10 μg/mL),Y (Y = MIC of 1 μg/mL to 10 μg/mL),X (key: X = Less than 10; Y = 10 to 40; Z Greater than 40),Y (Y = MIC of 1 μg/mL to 10 μg/mL),Y (Y = MIC of 1 μg/mL to 10 μg/mL),Y (key: X = MIC of less than 1 μg/mL; Y = MIC of 1 μg/mL to 10 μg/mL; Z = MIC of greater than 10 μg/mL),Y (key: X = MIC of less than 1 μg/mL; Y = MIC of 1 μg/mL to 10 μg/mL; Z = MIC of greater than 10 μg/mL),–,Y (Y = MIC of 1 μg/mL to 10 μg/mL),< 1,< 1,Y (key: X = MIC of less than 1 μg/mL; Y = MIC of 1 μg/mL to 10 μg/mL; Z = MIC of greater than 10 μg/mL),15000 to 500000,15000 to 500000,Y (key: X = MIC of less than 1 μg/mL; Y = MIC of 1 μg/mL to 10 μg/mL; Z = MIC of greater than 10 μg/mL),Y (key: X = MIC of less than 1 μg/mL; Y = MIC of 1 μg/mL to 10 μg/mL; Z = MIC of greater than 10 μg/mL),–
